# From patent US11998539B2, “Substituted aminoquinolones as DGKalpha inhibitors for immune activation” (Bayer Aktiengesellschaft, priority 2019, dated 2024)
# Target: DGKα (Homo sapiens (Human), UniProt P23743)
# Experiment: Human DGKα kinase activity inhibition assay (ADP-Glo)
# Format: biochemical
# Details: recombinant full-length human DGKα, 55 μM ATP, 7 μM 1,2-dioleoyl-sn-glycerol, read-out: IC50 values of examples in in vitro human DGKa kinase activity inhibition assays
# In short: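 Recombinant full-length human DGKα (C-terminal FLAG, from insect cells) phosphorylated 1,2-dioleoyl-sn-glycerol presented in octyl-glucopyranoside micelles. ADP formed was quantified by ADP-Glo luminescence. Compounds were added from 100-fold DMSO stocks.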
# DGKα, sequence (P23743 other isoform, or with tags, fused parts or gaps): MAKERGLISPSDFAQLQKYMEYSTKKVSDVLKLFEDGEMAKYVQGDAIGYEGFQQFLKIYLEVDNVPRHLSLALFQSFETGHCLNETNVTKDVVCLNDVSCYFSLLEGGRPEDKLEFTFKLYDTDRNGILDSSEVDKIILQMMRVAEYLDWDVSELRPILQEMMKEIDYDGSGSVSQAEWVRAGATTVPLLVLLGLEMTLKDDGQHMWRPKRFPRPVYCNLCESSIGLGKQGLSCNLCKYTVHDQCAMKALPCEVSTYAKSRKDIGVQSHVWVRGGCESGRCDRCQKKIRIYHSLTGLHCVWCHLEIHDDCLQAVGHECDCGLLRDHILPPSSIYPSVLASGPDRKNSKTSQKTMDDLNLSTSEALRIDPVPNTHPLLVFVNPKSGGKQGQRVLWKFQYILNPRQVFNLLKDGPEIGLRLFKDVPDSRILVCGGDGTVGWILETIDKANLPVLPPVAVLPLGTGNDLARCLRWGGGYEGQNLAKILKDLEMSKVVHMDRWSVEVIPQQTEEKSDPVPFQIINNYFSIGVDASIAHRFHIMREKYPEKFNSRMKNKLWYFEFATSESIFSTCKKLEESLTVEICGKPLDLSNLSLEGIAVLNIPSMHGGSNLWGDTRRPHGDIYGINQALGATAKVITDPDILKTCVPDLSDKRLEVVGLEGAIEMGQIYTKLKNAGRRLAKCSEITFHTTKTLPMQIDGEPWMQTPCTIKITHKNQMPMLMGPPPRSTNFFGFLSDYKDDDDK
row,Compound,IC50 [nM]
1,"CC(=O)c1ccc(C2(C)CCN(c3c(C#N)c(=O)n(C)c4ccccc34)CC2)cc1 [Example 335, 4-[4-(4-acetylphenyl)-4-methylpiperidin-1-yl]-1-methyl-2-oxo-1,2-dihydroquinoline-3-carbonitrile]",2.3
2,"COC1(c2cccc(Cl)c2)CCN(c2c(C#N)c(=O)n(C)c3ccccc23)CC1 [Example 336, 4-[4-(3-chlorophenyl)-4-methoxypiperidin-1-yl]-1-methyl-2-oxo-1,2-dihydroquinoline-3-carbonitrile]",80
3,"Cc1ccc2oc(C3CCN(c4c(C#N)c(=O)n(C)c5ccc(P(C)(C)=O)cc45)CC3)nc2c1 [Example 338, 6-(dimethylphosphoryl)-1-methyl-4-[4-(5-methyl-1,3-benzoxazol-2-yl)piperidin-1-yl]-2-oxo-1,2-dihydroquinoline-3-carbonitrile]",86
4,"Cc1ccc2oc(C3CCN(c4c(C#N)c(=O)n(C)c5ccc(S(C)(=O)=O)cc45)CC3)nc2c1 [Example 339, 6-(methanesulfonyl)-1-methyl-4-[4-(5-methyl-1,3-benzoxazol-2-yl)piperidin-1-yl]-2-oxo-1,2-dihydroquinoline-3-carbonitrile]",67
5,"Cn1c(=O)c(C#N)c(N2CCC(O)(c3cc4ccccc4s3)CC2)c2ccccc21 [Example 340, 4-[4-(1-benzothiophen-2-yl)-4-hydroxypiperidin-1-yl]-1-methyl-2-oxo-1,2-dihydroquinoline-3-carbonitrile]",72
6,"COC1(c2cc3ccccc3s2)CCN(c2c(C#N)c(=O)n(C)c3ccccc23)CC1 [Example 341, 4-[4-(1-benzothiophen-2-yl)-4-methoxypiperidin-1-yl]-1-methyl-2-oxo-1,2-dihydroquinoline-3-carbonitrile]",3.3
7,"Cn1c(=O)c(C#N)c(N2CCC(C)(c3cc4ccccc4s3)CC2)c2ccccc21 [Example 342, 4-[4-(1-benzothiophen-2-yl)-4-methylpiperidin-1-yl]-1-methyl-2-oxo-1,2-dihydroquinoline-3-carbonitrile]",2.9
8,"COc1ccc2cc(C3CCN(c4c(C#N)c(=O)n(C)c5ccccc45)CC3)ccc2c1 [Example 343, 4-[4-(6-methoxynaphthalen-2-yl)piperidin-1-yl]-1-methyl-2-oxo-1,2-dihydroquinoline-3-carbonitrile]",16
9,"Cc1cc(C#N)c2cc(C3CCN(c4c(C#N)c(=O)n(C)c5ccccc45)CC3)ccc2n1 [Example 344, 6-[1-(3-cyano-1-methyl-2-oxo-1,2-dihydroquinolin-4-yl)piperidin-4-yl]-2-methylquinoline-4-carbonitrile]",489
10,"Cc1nc2cc(C3CCN(c4c(C#N)c(=O)n(C)c5ccccc45)CC3)ccc2o1 [Example 345, 1-methyl-4-[4-(2-methyl-1,3-benzoxazol-5-yl)piperidin-1-yl]-2-oxo-1,2-dihydroquinoline-3-carbonitrile]",38
11,"Cc1nc2cc(C3CCN(c4c(C#N)c(=O)n(C)c5ccccc45)CC3)ccc2s1 [Example 346, 1-methyl-4-[4-(2-methyl-1,3-benzothiazol-5-yl)piperidin-1-yl]-2-oxo-1,2-dihydroquinoline-3-carbonitrile]",28
12,"Cc1ccccc1-c1noc(C2CCN(c3c(C#N)c(=O)n(C)c4ccccc34)CC2)n1 [Example 348, 1-methyl-4-{4-[3-(2-methylphenyl)-1,2,4-oxadiazol-5-yl]piperidin-1-yl}-2-oxo-1,2-dihydroquinoline-3-carbonitrile]",7.9
13,"COc1ccc(-c2noc(C3CCN(c4c(C#N)c(=O)n(C)c5ccccc45)CC3)n2)cc1 [Example 349, 4-{4-[3-(4-methoxyphenyl)-1,2,4-oxadiazol-5-yl]piperidin-1-yl}-1-methyl-2-oxo-1,2-dihydroquinoline-3-carbonitrile]",15
14,"Cc1cccc(-c2noc(C3CCN(c4c(C#N)c(=O)n(C)c5ccccc45)CC3)n2)c1 [Example 350, 1-methyl-4-{4-[3-(3-methylphenyl)-1,2,4-oxadiazol-5-yl]piperidin-1-yl}-2-oxo-1,2-dihydroquinoline-3-carbonitrile]",11
